Structures can show the parent of a compound that is named as a salt.
Assays:
[1] = tested on: HeLa cells; assay: cytotoxicity by crystal violet staining; format: cell-based; conditions: 40 h
Method: Seven of the compounds according to the invention were selected for biological tests. Their cytotoxicity was assessed using crystal violet staining as adapted from standard procedure^[31]. Briefly, HeLa cells were seeded on 96-well plates, treated with the given concentrations of the selected compound, and exposed or not to the pulse protocol of illumination with light at 390 nm (pulses of 75 ms every 15 s). After 40 h cells were stained with crystal violet solution (0.5% crystal violet in 20% methanol) for 10 min. Unbound crystal violet was removed by rinsing with distilled water and cells were air-dried. Crystal violet was subsequently eluted from cells with 0.1 M sodium citrate in 50% ethanol. The absorbance of crystal violet is proportional to the cell number and was determined at 590 nm with a FLUOstar Omega microplate reader (BMG Labtech).
Each compound was tested at 6 doses: 100 nM, 500 nM, 1 μM, 2 μM, 5 μM and 10 μM. In order to ensure their solubility in the cell culture media, DMSO was used as a co-solvent, and to provide comparability between all samples the volume of DMSO was adjusted to obtain its final concentration as 1% in the cell culture media for all the compounds at all concentrations tested.
Results presented in Table 4 below are expressed as a fold growth relative to the control growth of the cells treated only with a co-solvent (1% DMSO), and are represented as a mean value from triplicates coming from a representative experiment.

[2] = UV-Vis absorption spectra of trans and cis isomers (λstrong, εE, λiso); format: physicochemical; conditions: PBS pH = 7.4, 20% MeCN
Method: A(λmeas, λirrad) is used to indicate the measured UV-Vis absorption spectrum in the range 340 nm<λmeas<650 nm, as a function of the irradiating wavelength λirrad once PSS(λirrad) has been established. UV-Vis measurement of A(λmeas, λirrad) was performed. It was considered that the PSS had been established when the absorbance profile ceased to alter under continued irradiation. An isosbestic point (wavelength λiso) was found for each compound by examining where the absorption A(λmeas) was invariant with respect to changing λirrad. A(λmeas, dark) was also acquired with samples that had been kept in the dark for at least several hours, and it was assumed that no significant spectral contribution from the cis isomer was present in these spectra. […]
HPLC (high-performance liquid chromatography) was then used as described in Part A to measure ε*E(λ) and ε*Z(λ) (the separated absorption profiles of trans and cis isomers respectively, in arbitrary units which are not intercomparable in an absolute sense). It was approximated that these spectra would be identical in shape if measured under the UV-Vis conditions, so once ε*E(λ) and ε*Z(λ) were scaled appropriately relative to each other, these scaled spectra could be used to deconvolute A(λmeas, λirrad). This approximation was considered useful especially in the regions of greatest spectral interest, ie. regions of relatively strong absorption (since only rather well-absorbed wavelengths will allow significant photoisomerisation under finite photon flux). To place the arbitrary-unit absorption spectra on an absolute scale, the maximal absorption wavelength λstrong of the trans-isomer was first selected by examining A(λmeas, dark): typically, λstrong≈380 nm. with Expressing A(λstrong, dark) in units M^−1cm^−1, ε*E(λstrong) was then scaled so that εE(λstrong)=A(λstrong, dark), giving:
εE(λ)=ε*E(λ)×[A(λstrong,dark)/ε*E(λstrong)]
and the isosbestic point was used to scale the cis-isomer spectrum as per:
εZ(λ)=ε*Z(λ)×[εE(λiso)/ε*Z(λiso)]
However, using A(λstrong, dark) was preferred, since A(λiso) was typically so much smaller that the standard deviation in the scaled absorptivities which it generated was far greater.
Absorption spectra in cuvette (“UV-Vis”) were acquired on a Varian CaryScan 50 (1 cm, 100 μL or 1 mL volume) with Peltier cell temperature control unit maintained at 37° C., in PBS at pH˜7.4 containing a low percentage of cosolvent if needed (typically 2% MeCN or 5% DMSO). A ThorLabs Polychrome V monochromator with a fibre optic cable output directed into the cuvette was used to perform photoisomerisation studies by UV-Vis spectrophotometry although single LEDs of approximately 10-20 mW output, 15-20° cone angle, and 10-15 nm bandwidth FWHM, obtained commercially from Roithner Lasertechnik GmbH, were equally successful in providing repeatable monochromatic photoisomerisation. Separated spectra of trans and […] forms were acquired from the inline Diode Array Detector on the AGILENT 1260 SL coupled LC-MS system after HPLC separation. Fluorescence spectrophotometry (excitation and emission spectra) were acquired on a Varian CaryEclipse fluorescence spectrophotometer.
By the above procedure, the trans- and cis-isomers of each species were separated by HPLC as described in Part A, and ε*E(λ) and ε*Z(λ) were measured on the inline ultraviolet/visible Diode Array Detector; these were then scaled as outlined above. The parameters λstrong, εE(λstrong) and λiso are tabulated for selected compounds below (Table 1).

[3] = thermal reversion halflife of spontaneous cis->trans isomerisation; format: physicochemical; conditions: PBS pH = 7.4, 20% MeCN
Excerpt: Finally, trends in τ were ascertained by establishing the PSS at λstrong, then turning off the light source at time t0, and measuring A(λstrong, t) over time. Data were acquired for half an hour, or else the first three halflives (whichever was the shorter period), then fitted to the equation:
A(λstrong,t)=A(λstrong,dark)−[A(λstrong,dark)−A(λstrong,t0)]×e^−kt
This fit was used to return an in vitro halflife τ* for the cis->trans spontaneous thermal reversion isomerisation process, defined as τ=ln 2/k. It should be noted however, that azoaryl compounds' thermal reversion rates are known to depend strongly upon their microenvironment, such as pH and solvent/solvation effects^[7,38]. This was shown for compound (I.1), where a change of only 1.4 pH units gave a 25% change in τ*; note that different compounds are expected to respond very differently to changes in pH so no unifying trends are expected. Therefore the τ* acquired in vitro were considered appropriate only for qualitative intercomparison between samples (trend of τ* vs structure), rather than quantitative prediction of the τ values which might be experienced in cellulo or in vivo. Indeed, these in vitro τ* values appeared at least three times longer than what would have been expected based on in cellulo experiments where the pause time between activating pulses was varied.
Thermal reversion times were measured as described above. Those for selected compounds are presented below (Table 2).

[4] = 100 nM, 390 nm (75 ms every 15 s)
[5] = 500 nM, 390 nm (75 ms every 15 s)
[6] = 1 μM, 390 nm (75 ms every 15 s)
[7] = 2 μM, 390 nm (75 ms every 15 s)
[8] = 5 μM, 390 nm (75 ms every 15 s)
[9] = 10 μM, 390 nm (75 ms every 15 s)

| εE(λstrong) [2] [M⁻¹ cm⁻¹] | λiso [2] [nm] | λstrong [2] [nm] | τ, reversion time [3] [min] | SMILES | mean fold growth [1, 4] [fold] | mean fold growth ([1]; 100 nM, Dark) [fold] | mean fold growth [1, 5] [fold] | mean fold growth ([1]; 500 nM, Dark) [fold] | mean fold growth [1, 6] [fold] | mean fold growth ([1]; 1 μM, Dark) [fold] | mean fold growth [1, 7] [fold] | mean fold growth ([1]; 2 μM, Dark) [fold] | mean fold growth [1, 8] [fold] | mean fold growth ([1]; 5 μM, Dark) [fold] | mean fold growth [1, 9] [fold] | mean fold growth ([1]; 10 μM, Dark) [fold] |
| --- | --- | --- | --- | --- | --- | --- | --- | --- | --- | --- | --- | --- | --- | --- | --- | --- |
| 17813 | 452 | 360 | 248 | COc1ccc(N=Nc2cc(OC)c(OC)c(OC)c2)cc1C=O [I.28, 2-methoxy-5-((3,4,5-trimethoxyphenyl)diazenyl)benzaldehyde] |  |  |  |  |  |  |  |  |  |  |  |  |
| 18000 | 485 | 390 | 3.3 | COc1cc(N=Nc2ccc(OC)c3ncccc23)cc(OC)c1OC [I.14, 8-methoxy-5-((3,4,5-trimethoxyphenyl)diazenyl)quinoline] |  |  |  |  |  |  |  |  |  |  |  |  |
| 18163 | 460 | 375 | 40 | COc1ccc(N=Nc2cc(OC)c(OC)c(OC)c2)cc1OC [I.11, 1-(3,4-dimethoxyphenyl)-2-(3,4,5-trimethoxyphenyl)diazene] |  |  |  |  |  |  |  |  |  |  |  |  |
| 20102 | 447 | 365 | 104 | COc1ccc(N=Nc2cc(OC)c(OC)c(OC)c2)cc1C(=O)O [I.29, 2-methoxy-5-((3,4,5-trimethoxyphenyl)diazenyl)benzoic acid] |  |  |  |  |  |  |  |  |  |  |  |  |
| 14200 | 440 | 355 | 270 | COc1ccc(N=Nc2cc(OC)c(OC)c(OC)c2)cn1 [I.13, 2-methoxy-5-((3,4,5-trimethoxyphenyl)diazenyl)pyridine] |  |  |  |  |  |  |  |  |  |  |  |  |
| 12400 | 485 | 380 | 28 | COc1ccc(N=Nc2cc(OC)c(OC)c(OC)c2)c(OC)c1 [I.12, 1-(2,4-dimethoxyphenyl)-2-(3,4,5-trimethoxyphenyl)diazene] |  |  |  |  |  |  |  |  |  |  |  |  |
| 19540 | 445 | 365 | 129 | COc1ccc(N=Nc2cc(OC)c(OC)c(OC)c2)cc1Br [I.27, 1-(3-bromo-4-methoxyphenyl)-2-(3,4,5-trimethoxyphenyl)diazene] |  |  |  |  |  |  |  |  |  |  |  |  |
| 16300 | 475 | 380 | 8.4 | COc1ccc(N=Nc2cc(OC)c(OC)c(OC)c2)c(NC(C)=O)c1 [I.26, N-(5-methoxy-2-((3,4,5-trimethoxyphenyl)diazenyl)phenyl)acetamide] |  |  |  |  |  |  |  |  |  |  |  |  |

More lines, now with the values behind:

| SMILES | εE(λstrong) [2] [M⁻¹ cm⁻¹] | λiso [2] [nm] | λstrong [2] [nm] | τ, reversion time [3] [min] | mean fold growth [1, 4] [fold] | mean fold growth ([1]; 100 nM, Dark) [fold] | mean fold growth [1, 5] [fold] | mean fold growth ([1]; 500 nM, Dark) [fold] | mean fold growth [1, 6] [fold] | mean fold growth ([1]; 1 μM, Dark) [fold] | mean fold growth [1, 7] [fold] | mean fold growth ([1]; 2 μM, Dark) [fold] | mean fold growth [1, 8] [fold] | mean fold growth ([1]; 5 μM, Dark) [fold] | mean fold growth [1, 9] [fold] | mean fold growth ([1]; 10 μM, Dark) [fold] |
| --- | --- | --- | --- | --- | --- | --- | --- | --- | --- | --- | --- | --- | --- | --- | --- | --- |
| COc1ccc(N=Nc2cc(OC)c(OC)c(OC)c2)cc1OC(=O)N1CCCCC1CNC(=O)[C@@H](N)CC(C)C (stereo partly drawn) [I.10, (2-methoxy 5-((3,4,5-trimethoxyphenyl)diazenyl)phenyl) 2-((L-leucinamido)methyl)piperidine 1-carboxylate 2,2,2-trifluoroacetate salt] |  |  |  |  | 0.986 | 0.95 | 0.945 | 0.99 | 0.387 | 0.92 | 0.357 | 0.90 | 0.217 | 0.99 | 0.293 | 0.78 |
| COc1ccc(N=Nc2cc(OC)c(OC)c(OC)c2)c(F)c1 [I.4, 1-(2-fluoro-4-methoxyphenyl)-2-(3,4,5-trimethoxyphenyl)diazene] | 19804 | 455 | 365 | 119 | 0.98 | 0.93 | 0.78 | 0.93 | 0.53 | 0.89 | 0.48 | 0.94 | 0.44 | 0.94 | 0.36 | 0.78 |
| COc1ccc(N=Nc2cc(OC)c(OC)c(OC)c2)cc1NC(=O)[C@@H](N)CO [I.20, (2-methoxy 5-((3,4,5-trimethoxyphenyl)diazenyl)phenyl)) 1-L-serinamide 2,2,2-trifluoroacetate salt] |  |  |  |  | 1.09 | 0.99 | 1.10 | 1.11 | 1.00 | 1.12 | 0.96 | 1.10 | 0.68 | 1.03 | 0.51 | 1.01 |
| COc1ccc(N=Nc2cc(OC)c(OC)c(OC)c2)c(F)c1F [I.5, 1-(2,3-difluoro-4-methoxyphenyl)-2-(3,4,5-trimethoxyphenyl)diazene] | 19578 | 450 | 365 | 134 |  |  |  |  |  |  |  |  |  |  |  |  |
| COc1ccc(N=Nc2cc(F)c(OC)c(F)c2)cc1 [I.9, 1-(3,5-difluoro-4-methoxyphenyl)-2-(4-methoxyphenyl)diazene] | 11400 | 430 | 355 | 116 |  |  |  |  |  |  |  |  |  |  |  |  |
| COc1cc(N=Nc2ccc(OC)c([N+](=O)[O-])c2F)cc(OC)c1OC [I.7, 1-(2-fluoro-4-methoxy-3-nitrophenyl)-2-(3,4,5-trimethoxyphenyl)diazene] | 13600 | 455 | 365 | 50 |  |  |  |  |  |  |  |  |  |  |  |  |
